According to PubChem BioAssay AID330 (DTP/NCI, 2004):
Several values for one entry are separate records, joined by “and”; a condition that tells them apart may be missing. Equal entries are not always repeated. Toxic doses and inconclusive results are not listed. The calls were made as follows: active = survival T/C of 150% or more; inactive = T/C below 125% in these data. Square brackets hold non-standard residues; d marks the D form. Peptide text beside a SMILES is read from it. * marks the point of attachment. ξ: configuration not given here. Cbz = O=C(OCc1ccccc1)*; ξP = O=C(O)C1CCCN1

Tested on: P388 leukemia ip, CD2F1 mice, survival T/C
Experiment: NCI In Vivo Anticancer Drug Screen. Data for tumor model P388 Leukemia (intraperitoneal) in CD2F1 (CDF1) mice
Settings: endpoint: median survival time, higher = longer survival
In short: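 Mice carrying the transplanted tumor received test compound or vehicle. Survival was recorded in each group, and the value is the treated-group measurement divided by that of the vehicle-treated control group.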

[1] = dose: 100.0 mg/kg/injection, schedule: Q01DX001 (ip), vehicle: Klucel (hydroxypropylcellulose) (HPC)
[2] = dose: 200.0 mg/kg/injection, schedule: Q01DX001 (ip), vehicle: Klucel (hydroxypropylcellulose) (HPC)
[3] = dose: 400.0 mg/kg/injection, schedule: Q01DX001 (ip), vehicle: Klucel (hydroxypropylcellulose) (HPC)
[4] = dose: 60.0 mg/kg/injection, schedule: Q01DX005 (ip), vehicle: saline with Tween-80
[5] = dose: 120.0 mg/kg/injection, schedule: Q01DX005 (ip), vehicle: saline with Tween-80
[6] = dose: 240.0 mg/kg/injection, schedule: Q01DX005 (ip), vehicle: saline with Tween-80
[7] = dose: 50.0 mg/kg/injection, schedule: Q01DX005 (ip), vehicle: Klucel (hydroxypropylcellulose) (HPC)
[8] = dose: 100.0 mg/kg/injection, schedule: Q04DX002 (ip), vehicle: saline with Tween-80
[9] = dose: 200.0 mg/kg/injection, schedule: Q04DX002 (ip), vehicle: saline with Tween-80
[10] = dose: 400.0 mg/kg/injection, schedule: Q04DX002 (ip), vehicle: saline with Tween-80
[11] = dose: 25.0 mg/kg/injection, schedule: Q01DX009 (ip), vehicle: other
[12] = dose: 50.0 mg/kg/injection, schedule: Q01DX009 (ip), vehicle: other
[13] = dose: 100.0 mg/kg/injection, schedule: Q01DX009 (ip), vehicle: other
[14] = dose: 200.0 mg/kg/injection, schedule: Q01DX009 (ip), vehicle: other
[15] = dose: 50.0 mg/kg/injection, schedule: Q01DX005 (ip), vehicle: saline with Tween-80
[16] = dose: 100.0 mg/kg/injection, schedule: Q01DX005 (ip), vehicle: saline with Tween-80
[17] = dose: 200.0 mg/kg/injection, schedule: Q01DX005 (ip), vehicle: saline with Tween-80
[18] = dose: 50.0 mg/kg/injection, schedule: Q01DX009 (ip), vehicle: saline with Tween-80
[19] = dose: 100.0 mg/kg/injection, schedule: Q01DX009 (ip), vehicle: saline with Tween-80
[20] = dose: 200.0 mg/kg/injection, schedule: Q01DX009 (ip), vehicle: saline with Tween-80
[21] = dose: 50.0 mg/kg/injection, schedule: Q01DX009 (ip), vehicle: saline
[22] = dose: 100.0 mg/kg/injection, schedule: Q01DX009 (ip), vehicle: saline
[23] = dose: 200.0 mg/kg/injection, schedule: Q01DX009 (ip), vehicle: saline
[24] = dose: 50.0 mg/kg/injection, schedule: Q04DX003 (ip), vehicle: saline with Tween-80
[25] = dose: 100.0 mg/kg/injection, schedule: Q04DX003 (ip), vehicle: saline with Tween-80
[26] = dose: 50.0 mg/kg/injection, schedule: Q01DX009 (ip), vehicle: Klucel (hydroxypropylcellulose) (HPC)
[27] = dose: 200.0 mg/kg/injection, schedule: Q01DX009 (ip), vehicle: Klucel (hydroxypropylcellulose) (HPC)

Measured: T/C

CNC(=O)OCc1c(Cl)nc2sccn12
inactive: [1] 109 % of control | [2] 100 % of control | [3] 100 % of control

CC(=O)Nc1[nH]ncc1C#N
inactive: [4] 98 % of control | [5] 107 % of control | [6] 101 % of control

O=C1CC(=O)N(CN2C(=O)CC(=O)NC2=S)C(=S)N1
inactive: [7] 100 % of control | dose: 100.0 mg/kg/injection, schedule: Q01DX005 (ip), vehicle: Klucel (hydroxypropylcellulose) (HPC) 103 % of control | dose: 200.0 mg/kg/injection, schedule: Q01DX005 (ip), vehicle: Klucel (hydroxypropylcellulose) (HPC) 105 % of control

COc1cccc2c1C(=O)c1c(O)c3c(c(O)c1C2=O)C[C@@](O)(/C(C)=N\O)C[C@@H]3OC1CC(N)C(O)C(C)O1 (stereo not given in full)
inactive: dose: 6.25 mg/kg/injection, schedule: Q04DX003 (ip), vehicle: water 115 % of control and 124 % of control | dose: 12.5 mg/kg/injection, schedule: Q04DX003 (ip), vehicle: water 116 % of control and 117 % of control | dose: 25.0 mg/kg/injection, schedule: Q01DX009 (ip), vehicle: water 100 % of control | dose: 25.0 mg/kg/injection, schedule: Q04DX003 (ip), vehicle: water 123 % of control | dose: 100.0 mg/kg/injection, schedule: Q04DX003 (ip), vehicle: water 119 % of control | dose: 200.0 mg/kg/injection, schedule: Q04DX003 (ip), vehicle: water 101 % of control
active: dose: 3.13 mg/kg/injection, schedule: Q01DX009 (ip), vehicle: water 154 % of control | dose: 6.25 mg/kg/injection, schedule: Q01DX009 (ip), vehicle: water 165 % of control | dose: 12.5 mg/kg/injection, schedule: Q01DX009 (ip), vehicle: water 183 % of control

COC1(OC)C2C(Br)=C(Br)C1C1CCC/C=C\CC12 (stereo not given)
inactive: [8] 103 % of control | [9] 103 % of control | [10] 109 % of control

N#CCCNc1cc(O)c2c(c1O)C(=O)c1ccccc1C2=O
inactive: [11] 88 % of control | [12] 100 % of control | [13] 95 % of control | [14] 90 % of control

COc1ccc(N2C(=O)C(C)SC23C(=O)Nc2ccccc23)cc1 (stereo not given)
inactive: [4] 99 % of control | [5] 100 % of control | [6] 98 % of control

CSC1=Nc2cc3c(cc2C(=O)N2CC(OC(C)=O)CC12)OCO3 (stereo not given)
inactive: [15] 98 % of control | [16] 99 % of control | [17] 97 % of control

N#CC1CPCCC1N (stereo not given)
inactive: [18] 102 % of control | [19] 106 % of control | [20] 114 % of control

Cn1nnnc1NC#N
inactive: [1] 107 % of control | [2] 113 % of control | [3] 108 % of control

Cn1nc2c(c1-c1cccnc1)CCCc1ccccc1-2
inactive: dose: 12.5 mg/kg/injection, schedule: Q01DX009 (ip), vehicle: other 113 % of control | [11] 110 % of control | [12] 110 % of control | [13] 99 % of control | [14] 100 % of control

O=c1c(-c2ccccc2)nc2ccccc2n1CC1CCCN2CCCC[C@H]12 (stereo not given in full)
inactive: [4] 99 % of control | [5] 97 % of control | [6] 102 % of control

CCOCC[Se]c1ccccc1
inactive: [21] 92 % of control | [22] 92 % of control | [23] 91 % of control

CCC(C)n1c(=O)cc(C)[nH]c1=O (stereo not given)
inactive: [21] 101 % of control | [22] 98 % of control | [23] 104 % of control

O=C1CCC(n2cc(F)c(=O)[nH]c2=O)O1 (stereo not given)
inactive: dose: 25.0 mg/kg/injection, schedule: Q04DX003 (ip), vehicle: saline with Tween-80 105 % of control and 94 % of control | [24] 108 % of control and 95 % of control | [25] 101 % of control and 120 % of control and 95 % of control | dose: 400.0 mg/kg/injection, schedule: Q04DX003 (ip), vehicle: saline with Tween-80 103 % of control

COC(=O)/C=C1\C=CC=CN1C
inactive: [18] 105 % of control | [19] 106 % of control | [20] 106 % of control

CSc1nc2ccc(NC(C)=O)cc2s1
inactive: dose: 12.5 mg/kg/injection, schedule: Q01DX009 (ip), vehicle: Klucel (hydroxypropylcellulose) (HPC) 111 % of control | dose: 25.0 mg/kg/injection, schedule: Q01DX009 (ip), vehicle: Klucel (hydroxypropylcellulose) (HPC) 107 % of control | [26] 102 % of control and 87 % of control | [27] 90 % of control

CCOC(=O)C1CC1c1c(C)c2cc3[nH]c(cc4nc(cc5nc(cc1[nH]2)C(C)=C5CCC(=O)OC)C(CCC(=O)OC)=C4C)c(C)c3C1CC1C(=O)OCC (stereo not given)
inactive: [15] 93 % of control | [16] 86 % of control

O=c1[nH]c(=S)[nH]nc1/C=C/C=C/c1ccccc1
inactive: dose: 100.0 mg/kg/injection, schedule: Q01DX001 (ip), vehicle: saline 96 % of control | dose: 200.0 mg/kg/injection, schedule: Q01DX001 (ip), vehicle: saline 97 % of control | dose: 400.0 mg/kg/injection, schedule: Q01DX001 (ip), vehicle: saline 105 % of control

Cn1cnc([N+](=O)[O-])c1SCC(=O)O
inactive: [26] 108 % of control | dose: 100.0 mg/kg/injection, schedule: Q01DX009 (ip), vehicle: Klucel (hydroxypropylcellulose) (HPC) 122 % of control | [27] 96 % of control | dose: 400.0 mg/kg/injection, schedule: Q01DX009 (ip), vehicle: Klucel (hydroxypropylcellulose) (HPC) 103 % of control

COC(=O)C1CC=CCC1C(=O)OC (stereo not given)
inactive: [8] 107 % of control | [9] 106 % of control | [10] 100 % of control

CCOC(=O)c1cc(-c2cc(-c3ccccn3)nnc2-c2ccccn2)c(=O)n(C)c1C
inactive: [8] 102 % of control | [9] 97 % of control | [10] 98 % of control

C=COC(=O)C(NC(=O)OCc1ccccc1)c1ccccc1 (stereo not given)
inactive: [15] 102 % of control | [16] 101 % of control | [17] 95 % of control

Cc1cc(C)c(S(=O)(=O)NN)c(C)c1
inactive: dose: 25.0 mg/kg/injection, schedule: Q01DX009 (ip), vehicle: saline with Tween-80 104 % of control | [18] 104 % of control | [19] 100 % of control | [20] 95 % of control

O=C(O)CNC(=O)C1CCCN1C(=O)OCc1ccccc1 (stereo not given) (Cbz-[ξP]-Gly-OH)
inactive: [15] 100 % of control | [16] 91 % of control | [17] 91 % of control

COc1cc2ccc3c(c2cc1OC)CN1CCCC1C3 (stereo not given)
inactive: dose: 6.25 mg/kg/injection, schedule: Q01DX005 (ip), vehicle: Klucel (hydroxypropylcellulose) (HPC) 100 % of control | dose: 12.5 mg/kg/injection, schedule: Q01DX005 (ip), vehicle: Klucel (hydroxypropylcellulose) (HPC) 96 % of control | dose: 25.0 mg/kg/injection, schedule: Q01DX005 (ip), vehicle: Klucel (hydroxypropylcellulose) (HPC) 100 % of control | [7] 105 % of control

Cc1ccc(C(F)(F)F)cc1N(O)C(C)(C)C
inactive: [24] 95 % of control | [25] 101 % of control | dose: 200.0 mg/kg/injection, schedule: Q04DX003 (ip), vehicle: saline with Tween-80 118 % of control

COc1ccccc1N=NC1=C2Nc3ccccc3N=C1N(c1ccccc1OC)C(=S)N2c1ccccc1C
inactive: [15] 102 % of control | [16] 103 % of control

CC12CCC3C(CCC4=CC(OC5OC(CO)C(O)C(O)C5O)CCC43C=O)C1(O)CCC2c1ccc(=O)oc1 (stereo not given)
inactive: dose: 0.12 mg/kg/injection, schedule: Q01DX009 (ip), vehicle: saline + alcohol 103 % of control | dose: 0.25 mg/kg/injection, schedule: Q01DX009 (ip), vehicle: saline + alcohol 106 % of control | dose: 0.5 mg/kg/injection, schedule: Q01DX009 (ip), vehicle: saline + alcohol 106 % of control | dose: 1.0 mg/kg/injection, schedule: Q01DX009 (ip), vehicle: saline + alcohol 103 % of control
